# Source: article PMC8704709, “Improved Anticancer Activities of a New Pentafluorothio-Substituted Vorinostat-Type Histone Deacetylase Inhibitor” (Pharmaceuticals, 2021)
# Tests used:
# [1] = tested on: DU145 prostate tumor cells; experiment: Scratch assay (migration); assay type: cell-based, human; details: 5 µM and 10 µM, 24 h
# Description: To investigate the anti-migratory effects of SF5-SAHA scratch assays were performed as described. In brief, cells were grown to sub-confluency in 6-well plates. The cell monolayer was then scratched using a pipet tip. Cells at the edge of this artificial gap migrate into the cell-free area to close the gap in a time-dependent manner. DU145 cells were seeded at a density 1.5 × 10^5 cells/well and treated with SF5-SAHA (0–10 µM) for 24 h and bright-field images were taken before and after 12 h and 24 h of treatment using a an EVOS M5000 microscope (Thermo Fischer Scientific, Waltham MA, USA). The experiments were performed n = 3.
# [2] = tested on: chorioallantoic membrane (CAM) of fertilized chicken eggs; experiment: CAM assay (angiogenesis in fertilized chicken eggs); assay type: in vivo
# Description: Anti-angiogenesis activity of SF5-SAHA was tested on the CAM (chorioallantoic membrane) of fertilized chicken eggs. The embryonic development was started by placing the eggs in a humidified (>60%) incubator in an upright position at a temperature of 37.8 °C. After 3 days, a hole of 2 mm was pierced in the eggshell top side in order to detach the developing CAM from the eggshell and let it sink into the allantoic cavity. After 10 days, the eggshell hole was broadened, and a silicone ring (1 cm Ø) was placed on the CAM, which was allowed to attach for 6 h. Then, 20 µL of SF5-SAHA containing medium or PBS (control) was added into the ring. The angiogenic states of the CAM were documented using a stereomicroscope equipped with a Kappa digital camera system (Distelkamp-Electronic, Kaiserslautern, Germany). Pictures were taken every 24 h until the finish of the experiment after 72 h. The CAM experiments were carried out with n = 3 eggs for each condition.
# [3] = tested on: Human HDAC enzymes derived from HeLa cell nuclear extracts (pan-HDAC); experiment: Fluorogenic pan-HDAC activity assay; assay type: biochemical; details: cell free, 1–10 µM tested
# [4] = tested on: Hut78 cells; experiment: IC50 by Annexin-V/7AAD dual staining, flow cytometry; assay type: cell-based; details: Homo sapiens, as determined after 48 h, means ± SEM, n ≥ 3, read-out: Growth inhibitory activity IC50, Hut78
# Description: (§1) Stock solutions (10 mM) prepared by dissolution in DMSO were stored at −20 °C. Working solutions were always freshly prepared before each experiment by dilution of stock solution with medium. The final DMSO concentration never exceeded 0.25%. Treatment-induced changes in cell number were determined by crystal violet (N-hexamethylpararosaniline from Sigma Aldrich) staining. 1000 cells/well (DU145) or 1500 cells/well (Hep-G2) were seeded in 96-well plates and maintained for adherence in an incubator (37 °C, 5% CO2, humidified atmosphere) for 48 h prior to the beginning of the treatment. […] Thereafter, the cells were fixed with 1% glutaraldehyde and stained with 0.1% crystal violet. The unbound dye was removed by rinsing with water. Bound crystal violet was solubilized with 0.2% Triton X-100 (Sigma-Aldrich). Light extinction of crystal violet, which increases linearly with the cell number, was analyzed at 570 nm using an ELISA-Reader (Dynex Technologies, Denkendorf, Germany). For T-cell leukemia/lymphoma cell lines apoptosis was determined using dual staining for Annexin-V and 7AAD via flow cytometry.
# [5] = tested on: SupT11 cells; experiment: as above; assay type: cell-based; details: Homo sapiens, as determined after 48 h, means ± SEM, n ≥ 3, read-out: Growth inhibitory activity IC50, SupT11
# Description: as §1
# [6] = tested on: SMZ1 cells; experiment: as above; assay type: cell-based; details: Homo sapiens, as determined after 48 h, means ± SEM, n ≥ 3, read-out: Growth inhibitory activity IC50, SMZ1
# Description: as §1
# [7] = tested on: Jurkat cells; experiment: as above; assay type: cell-based; details: Homo sapiens, as determined after 48 h, means ± SEM, n ≥ 3, read-out: Growth inhibitory activity IC50, Jurkat
# Description: as §1
# [8] = tested on: Hep-G2 cells; experiment: Unspecific cytotoxicity (LDH release); assay type: cell-based, human; details: 1–10 µM, 3 and 24 h
# [9] = tested on: Hep-G2 cells; experiment: Cytosolic ROS formation (CellROX Orange fluorescence microscopy); assay type: cell-based, human; details: 6–24 h
# Description: (§2) Untreated cells incubated with 1.6 mM H2O2 for 30 min served as positive controls. CellROX® Orange reagent (1 µM) was applied, when adding the test compounds. Formation of ROS was measured after 3 h, 6 h, 12 h (not shown) and 24 h using ZOE™ Fluorescent Cell Imager (Biorad, Munich, Germany). n = 3 independent experiments performed in triplicate for each condition.
# [10] = tested on: DU145 cells; experiment: as above; assay type: cell-based, human; details: 6–24 h
# Description: as §2
structure (smiles),measurement,setting,value
O=C(CCCCCCC(=O)Nc1ccc(S(F)(F)(F)(F)F)cc1)NO [SF5-SAHA],migratory activity (scratch assay),[1],reduced migratory activity
same,toxicity to chicken embryos,[2]; doses of 5 and 10 µM,no toxicity
same,antiangiogenic effect on CAM,"[2]; topical application, 5 or 10 µM, 72 h",reduced vessel diameters and reduced numbers of vessel branches
same,pan-HDAC inhibition IC50 (in words),[3],submicromolar range
same,IC50,[4],2400 ± 400 nM
same,IC50,[5],3080 ± 330 nM
same,IC50,[6],1580 ± 290 nM
same,IC50,[7],760 ± 60 nM
same,LDH release (unspecific cytotoxicity),[8],LDH levels were even decreased
same,cytosolic ROS formation,[9],pronounced time- and dose-dependent increase in cytosolic ROS
same,cytosolic ROS formation,[10],pronounced time- and dose-dependent increase in cytosolic ROS
